This passage reports Kd results from PMC9909988, “Procoxacin bidirectionally inhibits osteoblastic and osteoclastic activity in bone and suppresses bone metastasis of prostate cancer” (Journal of Experimental & Clinical Cancer Research : CR, 2023).

In general, Kd refers to the constant that tells how readily two partners part at equilibrium.

The target in this assay is T1, 14–3-3ζ (Homo sapiens, UniProt P63104).
T1 construct: gene YWHAZ
The assay can be described thus: SPR (Biacore T200, […]-3ζ ab87361 captured on NTA chip); supported by Pro-conjugated magnetic bead pull-down from C4-2B lysate. The assay is classed as binding. On the technique in general: In SPR one partner is held on a chip, and binding of the other changes the refractive index at the surface.

T1 sequence (P63104 whole entry): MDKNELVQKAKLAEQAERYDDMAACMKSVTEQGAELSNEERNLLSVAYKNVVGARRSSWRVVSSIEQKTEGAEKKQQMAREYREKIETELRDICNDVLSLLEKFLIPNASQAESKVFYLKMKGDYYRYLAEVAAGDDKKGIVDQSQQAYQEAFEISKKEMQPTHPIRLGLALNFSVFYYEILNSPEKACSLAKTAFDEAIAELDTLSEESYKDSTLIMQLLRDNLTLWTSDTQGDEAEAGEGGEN

`CC[C@@H](C(=O)[C@@H](C)[C@@H](O)[C@H](C)[C@@H]1O[C@@H]([C@@H](CC)C(=O)O)CC[C@@H]1C)[C@H]1O[C@]2(C=C[C@@H](O)[C@]3(CC[C@@](C)([C@H]4CC[C@](O)(CC)[C@H](C)O4)O3)O2)[C@H](C)C[C@@H]1C` [Pro, Procoxacin] returned a Kd of 1930 nM.
